Numbers after ± are expanded uncertainties.
Conditions: 101.33 kPa, Liquid; for viscosity: Capillary tube (Ostwald / Ubbelohde) method; for mass density: Pycnometric method

C[S+](C)[O-] [dimethyl sulfoxide]
Conditions	mass density [kg/m3]	viscosity [mPa·s]
298.15 K	1095.2 ± 0.6	2 ± 0.02
303.15 K	1090.6 ± 0.6	1.8 ± 0.02
308.15 K	1085.9 ± 0.6	1.61 ± 0.02
313.15 K	1081.3 ± 0.6	1.44 ± 0.01
318.15 K	1075.3 ± 0.6	1.33 ± 0.01
